Earlier results as cited in patent US20030035827A1, “Pharmaceutical compositions containing substrates of enabling enzymes to preferentially deliver drugs away from PBVC or GIC systems” (priority 2001, published 2003).
Read-outs that look alike come from different tables or passages of the source.

Target: pseudocholinesterase, plasma cholinesterase or butyrocholinesterase (PCE) (Homo sapiens, UniProt P06276)
[1] = substrate of PCE, previous experiments
[2] = substrate of PCE, previous experiments, read-out: Km

Chain of pseudocholinesterase, plasma cholinesterase or butyrocholinesterase (PCE) (P06276 29-602): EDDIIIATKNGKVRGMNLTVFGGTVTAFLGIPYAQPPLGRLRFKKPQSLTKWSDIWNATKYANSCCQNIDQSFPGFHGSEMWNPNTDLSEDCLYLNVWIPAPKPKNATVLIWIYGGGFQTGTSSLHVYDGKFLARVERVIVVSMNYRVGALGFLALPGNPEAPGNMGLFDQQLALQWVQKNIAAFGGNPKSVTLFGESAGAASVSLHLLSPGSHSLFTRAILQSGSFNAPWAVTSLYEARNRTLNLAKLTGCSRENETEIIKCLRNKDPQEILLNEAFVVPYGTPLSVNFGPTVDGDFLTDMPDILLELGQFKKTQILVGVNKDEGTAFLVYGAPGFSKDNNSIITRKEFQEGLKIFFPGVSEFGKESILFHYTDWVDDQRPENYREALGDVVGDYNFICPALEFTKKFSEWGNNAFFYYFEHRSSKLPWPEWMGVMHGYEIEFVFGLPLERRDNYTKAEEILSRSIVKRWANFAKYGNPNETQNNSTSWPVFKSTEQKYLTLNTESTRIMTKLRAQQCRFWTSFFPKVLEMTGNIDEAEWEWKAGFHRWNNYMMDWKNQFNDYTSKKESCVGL

CC(=O)Oc1ccc2c3c1O[C@H]1[C@@H](OC(C)=O)C=C[C@H]4[C@@H](C2)N(C)CC[C@@]341 [Heroin]
Km: 450000 nM | Kcat [1]: 500 min⁻¹

Succinyldithiocholine
Kcat [1]: 600 min⁻¹ | Km [2]: 1.08e+06 nM

CCCCC(=O)OCC[N+](C)(C)C [Pentanoylcholine]
Km (read-out: Km): 1.5e+06 nM | Kcat [1]: 63,000/min.

C[N+](C)(C)CCOC(=O)c1ccccc1 [Benzoylcholine]
Kcat [1]: 15,000/min. | Km [2]: 22000 nM

CCCC(=O)OCC[N+](C)(C)C [Butyrylcholine]
Kcat [1]: 80,000/min. | Km [2]: 1.7e+06 nM

CCC(=O)OCC[N+](C)(C)C [Propionylcholine]
Kcat [1]: 55,000/min. | Km [2]: 3.1e+06 nM

CCCCCC(=O)OCC[N+](C)(C)C [Hexanoylcholine]
Km (read-out: Km): 820000 nM | Kcat [1]: 36,000/min.

CC(=O)Oc1ccccc1C(=O)O [Aspirin]
Kcat [1]: 7,200/min. | Km [1]: 1,600 uM

CCCC(=O)Oc1ccccc1[N+](=O)[O-] [O-Nitrophenylbutyrate]
Kcat: 48,000/min. | Km (read-out: Km): 400000 nM

CCCCNc1ccc(C(=O)OCCN(C)C)cc1 [Tetracaine]
Kcat [1]: 74 min⁻¹ | Km [1]: 8000 nM

CCN(CC)CCOC(=O)c1ccc(N)cc1 [Procaine]
Km: 100000 nM | Kcat [1]: 255 min⁻¹

CCCC(=O)SCC[N+](C)(C)C [Butyrylthiocholine]
Kcat [1]: 30,000/min.

CCCCCCC(=O)OCC[N+](C)(C)C [Hepanoylcholine]
Kcat: 35,000/min. | Km (read-out: Km): 1.11e+06 nM

CC(=O)OCC[N+](C)(C)C [Acetylcholine]
Km [1]: 9,000 uM
